Results: patent publication US6153604A, “Therapeutic substituted guanidines” (Cambridge NeuroScience, Inc., priority 1995, dated 2000)
Counter-ions that a name gives are not always drawn.

Key:
[1] = system: NMDA-induced excitotoxic damage to the central nervous system; assay: In vivo assay for protection against NMDA-induced excitotoxic damage to the central nervous system; set-up: species or system rat (Day 7 neonatal); conditions: Rattus norvegicus, ip, 120 h, intraperitoneal; for inhibition in vivo at 60 µmol/kg: dose 60 μmol/kg; for ED80: 15 minutes after intrastriatal NMDA, neonatal rats, read-out: ED80 (dose that provides 80% of the maximum protection)
Procedure: In vivo assay for protection against NMDA-induced excitotoxic damage to the central nervous system.
The in vivo potency of compounds of the present invention is exemplified by data summarized in Table II and obtained pursuant to the following protocol. Day 7 neonatal rats were anesthetized with metophane inhalation anesthetic for 4-6 minutes, inserted into a stereotaxic apparatus and injected intrastriatally with 0.5 μl of 50 mM NMDA (N-methyl-D-aspartate). 15 minutes after the NMDA injection, the rat pups were injected intraperitoneally with 10, 30 or 60 μmol/kg of the NMDA antagonist of the structure specified in Table II Animals were returned to their mother and watched for signs of distress (e.g., respiratory depression). After five days, the animals were anesthetized with CO2 and then decapitated; their brains were removed and weighed to determine the degree of neuroprotection. Because NMDA injection results in a retardation of brain growth (including necrosis), effects can be measured gravimetrically in terms of the weights of injected and non-injected hemispheres. Two groups of rat pups were used at each of three doses of a compound to generate a neuroprotection dose-response curve. The chemical structure of each of the tested compounds is specified below with the general formula of the compounds shown at the top of Table II with particular substituent groups specified within that Table. Table II discloses 1) the ED80 for each tested compound, i.e., the dose of a compound that provides 80% of the maximum protection against damage to the central nervous system; and 2) the percent (%) maximum protection against damage to the central nervous system provided by the indicated dose expressed as μmol per kilogram bodyweight of the test subject.

sigma receptor = assay: Sigma receptor binding assay ([3H]DTG, guinea pig brain membrane homogenates); conditions: displacement of [3H]DTG, guinea pig brain membranes
Procedure: Sigma Receptor Binding Assay
Briefly, frozen whole guinea-pig brains (Biotrol, Indianapolis, Ind.) were homogenized in 10 volumes (w/v) of ice-cold 320 mM sucrose using a Brinkman polytron. The homogenate was centrifuged at 1,000×g for 20 minutes at 4° C. The supernatant was centrifuged at 20,000×g for 20 minutes at 4° C. The resulting pellet was resuspended in 10 initial volumes of 50 mM Tris/HCl buffer at pH 7.4 and centrifuged at 20,000×g for 20 minutes at 4° C. The resulting pellet was resuspended in 5 initial volumes ice-cold 50 mM Tris/HCl (pH 7.4), and the final volume was adjusted to yield a protein concentration of 3 mg/ml. Aliquots of 20-ml were stored at -70° C. until used, with no detectable loss of binding.
The protein concentration in the 1-ml final incubation volume was 800 μg/ml, corresponding to 32 mg of brain tissue (original wet weight) and to a tissue concentration within the linear range for specific binding. […] Incubations were terminated after 90 minutes at room temperature by addition of 4 ml of ice-cold 50 mM Tris/HCl (pH 7.4) and rapid filtration of the membrane suspension through Whatman GF/B glass-fiber filters under vacuum, using a 48-well cell harvester (Brandel). The filters were washed 2 times with 4 ml of 50 mM Tris/HCl (pH 7.4). […] IC50 values were determined by non-linear regression analysis.

PCP receptor = PCP receptor radioligand binding assay ([3H]MK-801, rat brain membranes); conditions: read-out: [3H-MK801] IC50; displacement of [3H]MK-801, rat brain membranes
[2] = read-out: % maximum protection per dose

| Compound | inhibition in vivo at 60 µmol/kg [1, 2] [%] | ED80 [1] [µmol/kg] | inhibition in vivo at 30 µmol/kg ([1]; dose 30 μmol/kg, read-out: % maximum protection per dose) [%] | IC50 (sigma receptor) [nM] | IC50 (PCP receptor) [nM] |
| --- | --- | --- | --- | --- | --- |
| CCc1cccc(N(C)C(=N)Nc2cc(Cl)ccc2Cl)c1 [Cmpd. No. 1 (Table II), N-(3-ethylphenyl)-N-methyl-N'-(2,5-dichlorophenyl)guanidine hydrochloride] | 88.8 | 36.4 |  |  |  |
| CCc1cccc(N(C)C(=N)Nc2cc(Br)ccc2Br)c1 [Cmpd. No. 2 (Table II), N-(3-ethylphenyl)-N-methyl-N'-(2,5-dibromophenyl)guanidine hydrochloride] | 93.8 | 13.4 |  |  |  |
| CCc1cccc(NC(=N)Nc2cc(C(F)(F)F)ccc2F)c1 [Cmpd. No. 3 (Table II), N-(3-Ethylphenyl)-N'-(2-fluoro-5-trifluoromethylphenyl)guanidine hydrochloride] | 76.6 | 15.2 |  |  |  |
| CCc1cccc(N(C)C(=N)Nc2cc(CC)ccc2Cl)c1 [Cmpd. No. 4 (Table II), N-(3-Ethylphenyl)-N-methyl-N'-(2-chloro-5-ethylphenyl)guanidine hydrochloride] | 77.8 | 19.8 |  |  |  |
| CCc1ccc(Cl)c(N(C)C(=N)Nc2cccc3ccccc23)c1 [Cmpd. No. 5 (Table II), N-(1-Naphthyl)-N'-(2-chloro-5-ethylphenyl)-N'-methylguanidine hydrochloride] | 92.2 | 22.3 |  |  |  |
| Cc1ccc(C)c(N(C)C(=N)Nc2cccc3ccccc23)c1 [Cmpd. No. 7 (Table II), N-(1-Naphthyl)-N'-(2,5-dimethylphenyl)-N'-methylguanidine hydrochloride] |  | 22.5 | 86 |  |  |
| N=C(Nc1cc(C(F)(F)F)ccc1F)Nc1cccc2ccccc12 [Cmpd. No. 8 (Table II), N-(1-Naphthyl)-N'-(2-fluoro-5-trifluoromethylphenyl)guanidine hydrochloride] | 96 | 28.8 |  |  |  |
| CSc1ccc(Cl)c(NC(=N)Nc2cccc3ccccc23)c1 [Cmpd. No. 9 (Table II), N-(1-Naphthyl)-N'-(2-chloro-5-thiomethylphenyl)guanidine hydrochloride] | 92.7 | 10.8 |  |  |  |
| N=C(Nc1cc(C(F)(F)F)ccc1Br)Nc1cccc2ccccc12 [Compd. No. 41 (Table I), N-(1-Naphthyl)-N'-(2-bromo-5-trifluoromethylphenyl)guanidine hydrochloride] |  |  |  | 49.6 | 51.1 |
| CSc1ccc(C(F)(F)F)cc1NC(=N)Nc1cccc2ccccc12 [Compd. No. 42 (Table I), N-(1-Naphthyl)-N'-(2-thiomethyl-5-trifluoromethylphenyl)guanidine hydrochloride] |  |  |  | 418 | 170 |
| CCc1ccc(Cl)c(NC(=N)Nc2cccc3ccccc23)c1 [Compd. No. 44 (Table I), N-(1-Naphthyl)-N'-(2-chloro-5-ethylphenyl)guanidine hydrochloride] |  |  |  | 4.94 | 20.6 |
| CCc1cccc(NC(=N)Nc2cccc3ccccc23)c1 [Compd. No. 45 (Table I)] |  |  |  | 53.8 | 39 |
| CSc1ccc(Cl)c(NC(=N)Nc2cccc3ccccc23)c1 [Compd. No. 46 (Table I), N-(1-Naphthyl)-N'-(2-chloro-5-thiomethylphenyl)guanidine hydrochloride] |  |  |  | 25.4 | 43 |
| CSc1cccc(NC(=N)Nc2cccc3ccccc23)c1 [Compd. No. 47 (Table I)] |  |  |  | 27 | 124 |
| Cc1ccc(Cl)c(NC(=N)Nc2cccc3cccnc23)c1 [Compd. No. 48 (Table I), N-(8-Quinolinyl)-N'-(2-chloro-5-methylphenyl)guanidine hydrochloride] |  |  |  | 989 | 32 |
| CN(C(=N)Nc1cccc2ccccc12)c1cc(Cl)ccc1Cl [Compd. No. 50 (Table I), N-(1-Naphthyl)-N'(2,5-dichlorophenyl)-N'-methylguanidine hydrochloride] |  |  |  | 1320 | 62 |

| Compound | inhibition in vivo at 60 µmol/kg [1, 2] [%] | ED80 [1] [µmol/kg] | inhibition in vivo at 30 µmol/kg ([1]; dose 30 μmol/kg, read-out: % maximum protection per dose) [%] | IC50 (sigma receptor) [nM] | IC50 (PCP receptor) [nM] |
| --- | --- | --- | --- | --- | --- |
| CN(C(=N)Nc1cccc2ccccc12)c1cccc(Cl)c1 [Compd. No. 52 (Table I)] |  |  |  | 2980 | 107 |
| Cc1ccc(C)c(N(C)C(=N)Nc2cccc3ccccc23)c1 [Compd. No. 54 (Table I), N-(1-Naphthyl)-N'-(2,5-dimethylphenyl)-N'-methylguanidine hydrochloride] |  |  |  | 1550 | 79 |
| Cc1ccc(Cl)c(N(C)C(=N)Nc2cccc3ccccc23)c1 [Compd. No. 55 (Table I), N-(1-Naphthyl)-N'-(2-chloro-5-methylphenyl)-N'-methylguanidine hydrochloride] |  |  |  | 2420 | 41 |
| CCc1ccc(Cl)c(N(C)C(=N)Nc2cccc3ccccc23)c1 [Compd. No. 57 (Table I), N-(1-Naphthyl)-N'-(2-chloro-5-ethylphenyl)-N'-methylguanidine hydrochloride] |  |  |  | 136 | 32.8 |
| CCc1cccc(N(C)C(=N)Nc2cccc3ccccc23)c1 [Compd. No. 58 (Table I)] |  |  |  | 2540 | 37.5 |
| CCc1cccc(N(C)C(=N)Nc2cc(SC)ccc2Br)c1 [Compd. No. 59 (Table I)] |  |  |  | 240 | 3.19 |
| CSc1cccc(N(C)C(=N)Nc2cc(SC)ccc2Cl)c1 [Compd. No. 60 (Table I), N-(3-Methylthiophenyl)-N-methyl-N'-(2-chloro-5-methylthiophenyl)guanidine hydrochloride] |  |  |  | 480 | 2.43 |
| CCc1ccc(Cl)c(NC(=N)N(C)c2cccc(SC)c2)c1 [Compd. No. 61 (Table I), N-(3-Methylthiophenyl)-N-methyl-N'-(2-chloro-5-ethylphenyl)guanidine hydrochloride] |  |  |  | 178 | 12.5 |
| CSc1cccc(N(C)C(=N)Nc2cc(Cl)ccc2Cl)c1 [Compd. No. 62 (Table I), N-(3-Methylthiophenyl)-N-methyl-N'-(2,5-dichlorophenyl)guanidine hydrochloride] |  |  |  | 130 | 59.3 |
| CSc1ccc(Cl)c(NC(=N)N(C)c2cccc(C(F)(F)F)c2)c1 [Compd. No. 66 (Table I), N-(3-Trifluoromethylphenyl)-N-methyl-N'-(2-chloro-5-methylthiophenyl)guanidine hydrochloride] |  |  |  | 421 | 8.47 |
| CCc1ccc(Cl)c(NC(=N)N(C)c2cccc(C(F)(F)F)c2)c1 [Compd. No. 67 (Table I), N-(3-Trifluoromethylphenyl)-N-methyl-N'-(2-chloro-5-ethylphenyl)guanidine hydrochloride] |  |  |  | 200 | 77 |
| CSc1ccc(Br)c(NC(=N)N(C)c2cccc(C(F)(F)F)c2)c1 [Compd. No. 69 (Table I), N-(3-Trifluoromethylphenyl)-N-methyl-N'-(2-bromo-5-methylthiophenyl)guanidine hydrochloride] |  |  |  | 631 | 5.55 |
| CCc1ccc(Br)c(NC(=N)N(C)c2cccc(C(F)(F)F)c2)c1 [Compd. No. 70 (Table I), N-(3-Trifluoromethylphenyl)-N-methyl-N'-(2-bromo-5-ethylphenyl)guanidine hydrochloride] |  |  |  | 166 | 20.4 |
| CN(C(=N)Nc1cc(Br)ccc1Br)c1cccc(C(F)(F)F)c1 [Compd. No. 71 (Table I), N-(3-Trifluoromethylphenyl)-N-methyl-N'-(2,5-dibromophenyl)guanidine hydrochloride] |  |  |  | 224 | 34 |
| CCc1cccc(NC(=N)Nc2cc(C(F)(F)F)ccc2F)c1 [Compound 5] |  |  |  | 14.8 | 98.9 |
| CSc1ccc(Cl)c(NC(=N)N(C)c2cccc3cccnc23)c1 [Compound 79] |  |  |  | 542 | 22.3 |
